Reference: patent US11667643B2, “RIP1K inhibitors” (priority 2020, dated 2023)
pIC50: −log10 of the molar value. Like-named read-outs stand apart in the source and are kept apart here.

Tests used:
[1] = test system: U937 cells; experiment: U937 cell necroptosis assay (TNFa + zVAD, CellTiter-Glo recovery), functional human RIP1 assay; type: cell-based; details: Homo sapiens, U-937, 18 h, read-out: U937 Zvad TNF CTG Recovery, U937, TNFa + zVAD (IC50), U937 cells, zVAD-fmk, TNFa 2 ng/mL, 18 hours, CellTiter-Glo
Summary of the method: (§1)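 Human U937 cells (50K/well, 60 uM zVAD-fmk in plating medium) and murine L929 cells (10K/well, medium replaced with 40 uM zVAD-fmk) were pre-incubated with compound 1 h at 37 °C. TNFa was then added at a final 2 ng/mL. Viability by CellTiter-Glo luminescence after 18 h.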

[2] = test system: L929 cells; experiment: L929 cell necroptosis assay (TNFa + zVAD, CellTiter-Glo recovery), functional murine RIP1 assay; type: cell-based; details: Mus musculus, L929, 18 h, read-out: L929-CTG-recovery, L929, TNFa + zVAD (IC50), L929 cells, zVAD-fmk, TNFa 2 ng/mL, 18 hours, CellTiter-Glo
Summary of the method: as §1

[3] = biological target: RIPK1 (Homo sapiens (Human), UniProt Q13546); experiment: biochemical; type: biochemical
Summary of the method: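 ADP-Glo luminescent assay of RIPK1 at 31 ng/well in Tris-HCl pH 7.4 buffer with MgCl2, BSA, 100 μM DTT and 4 mM MnCl2; compounds run in duplicate. Kinase reaction 30 min at 30 °C, then ADP-Glo 40 min and detection reagent 30 min at room temperature; ADP formation read as luminescence.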

[4] = RIPK1 enzyme 31 ng/well, 30° C. for 30 minutes, luminescence, read-out: RIPK1 ADP-Glo Kinase (IC50)

Sequence of RIPK1 (Q13546 whole entry, species assumed): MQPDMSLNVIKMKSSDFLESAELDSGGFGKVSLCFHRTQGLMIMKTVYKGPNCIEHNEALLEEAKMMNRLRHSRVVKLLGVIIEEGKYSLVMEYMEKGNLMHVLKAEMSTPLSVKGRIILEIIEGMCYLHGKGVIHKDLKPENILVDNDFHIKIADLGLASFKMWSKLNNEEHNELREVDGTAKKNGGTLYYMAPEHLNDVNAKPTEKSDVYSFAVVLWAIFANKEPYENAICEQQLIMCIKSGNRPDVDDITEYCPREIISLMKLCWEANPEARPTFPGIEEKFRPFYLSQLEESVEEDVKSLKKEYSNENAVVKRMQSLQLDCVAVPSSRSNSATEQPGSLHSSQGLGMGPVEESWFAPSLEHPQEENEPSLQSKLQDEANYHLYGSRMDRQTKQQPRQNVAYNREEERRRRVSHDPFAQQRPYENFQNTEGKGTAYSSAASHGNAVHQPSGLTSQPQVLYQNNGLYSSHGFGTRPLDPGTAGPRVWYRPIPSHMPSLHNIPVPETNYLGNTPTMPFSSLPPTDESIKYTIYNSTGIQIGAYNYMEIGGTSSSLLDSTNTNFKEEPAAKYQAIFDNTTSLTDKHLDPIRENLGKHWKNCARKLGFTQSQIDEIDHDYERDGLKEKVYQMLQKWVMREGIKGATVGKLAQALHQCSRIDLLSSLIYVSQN

Row | SMILES | pIC50 [1] | pIC50 [2] | pIC50 [3, 4] | pIC50 [3]
1 | O=C(N[C@H]1COc2ccccc2-n2nnnc21)c1ncn(Cc2ccccc2F)n1 [Compound I-21, (R)—N-(4,5-Dihydrobenzo[b]tetrazolo[1,5-d][1,4]oxazepin-4-yl)-1-(2-fluorobenzyl)-1H-1,2,4-triazole-3-carboxamide] | 7.20 | 3.80 | 7.25 | –
2 | O=C(NC1CCc2ccccc2-n2ccnc21)c1cc(Cc2ccccc2)on1 (racemic) [Compound I-9, (±)-5-Benzyl-N-(5,6-dihydro-4H-benzo[f]imidazo[1,2-a]azepin-4-yl)isoxazole-3-carboxamide] | 6.65 | 2.00 | 7.58 | –
3 | O=C(N[C@H]1COc2ccccc2-n2nnnc21)c1n[nH]c(Cc2ccccc2)n1 [Compound I-3, (R)-5-Benzyl-N-(4,5-dihydrobenzo[b]tetrazolo[1,5-d][1,4]oxazepin-4-yl)-1H-1,2,4-triazole-3-carboxamide] | 5.39 | 2.00 | 7.24 | –
4 | O=C(NC1CCc2ccccc2-n2ccnc21)c1nccc(-c2ccccc2)n1 (racemic) [Compound I-2, (±)-N-(5,6-Dihydro-4H-benzo[f]imidazo[1,2-a]azepin-4-yl)-4-phenylpyrimidine-2-carboxamide] | 4.40 | 2.00 | 5.21 | –
5 | O=C(NC1CCc2ccccc2-n2c1n[nH]c2=O)c1ncn(Cc2c(Cl)cccc2Cl)n1 (racemic) [Compound I-36, (±)-1-(2,6-Dichlorobenzyl)-N-(1-oxo-2,4,5,6-tetrahydro-1H-benzo[f][1,2,4]triazolo[4,3-a]azepin-4-yl)-1H-1,2,4-triazole-3-carboxamide] | 6.15 | 4.79 | 5.55 | –
6 | O=C(NC1CCc2ccccc2-n2cnnc21)c1ncn(Cc2c(Cl)cccc2Cl)n1 (racemic) [Compound I-58, (±)-1-(2,6-Dichlorobenzyl)-N-(5,6-dihydro-4H-benzo[f][1,2,4]triazolo[4,3-a]azepin-4-yl)-1H-1,2,4-triazole-3-carboxamide] | 7.13 | 2.00 | 7.24 | –
7 | O=C(NC1CCc2ccc(CN3CCN(c4ccncc4)CC3)cc2-n2ccnc21)c1ncn(Cc2c(Cl)cccc2Cl)n1 (racemic) [Compound I-47, (±)-1-(2,6-Dichlorobenzyl)-N-(9-((4-(pyridin-4-yl)piperazin-1-yl)methyl)-5,6-dihydro-4H-benzo[f]imidazo[1,2-a]azepin-4-yl)-1H-1,2,4-triazole-3-carboxamide] | 7.59 | 5.02 | 7.06 | –
8 | O=C(N[C@H]1COc2ccc(N3CC4(CCOCC4)C3)cc2-n2ccnc21)c1n[nH]c(Cc2ccccc2)n1 [Compound I-87, (R)—N-(9-(7-Oxa-2-azaspiro[3.5]nonan-2-yl)-4,5-dihydrobenzo[b]imidazo[1,2-d][1,4]oxazepin-4-yl)-5-benzyl-1H-1,2,4-triazole-3-carboxamide] | 7.81 | 2.00 | – | 7.17
9 | O=C(N[C@H]1CS(=O)(=O)c2ccccc2-n2nnnc21)c1cc(Cc2ccccc2)on1 [Compound I-25, (R)-5-Benzyl-N-(6,6-dioxido-4,5-dihydrobenzo[b]tetrazolo[1,5-d][1,4]thiazepin-4-yl)isoxazole-3-carboxamide] | 4.54 | 2.00 | 6.29 | –
10 | Cn1nc2n(c1=O)-c1ccccc1CCC2NC(=O)c1ncn(Cc2c(Cl)cccc2Cl)n1 (racemic) [Compound I-60, (±)-1-(2,6-Dichlorobenzyl)-N-(2-methyl-1-oxo-2,4,5,6-tetrahydro-1H-benzo[f][1,2,4]triazolo[4,3-a]azepin-4-yl)-1H-1,2,4-triazole-3-carboxamide] | 4.45 | 2.00 | 5.89 | –
11 | O=C(NC1Cc2ccccc2-n2ccnc21)c1cc(Oc2ccccc2)ccn1 (racemic) [Compound I-67, (±)-N-(4,5-Dihydroimidazo[1,2-a]quinolin-4-yl)-4-phenoxypicolinamide] | 2.00 | 2.00 | 4.94 | –
12 | O=C(N[C@H]1CCc2ccc(N3CC4(CCOCC4)C3)cc2-n2ccnc21)c1n[nH]c(Cc2ccccc2)n1 [Compound I-86, (S)—N-(9-(7-Oxa-2-azaspiro[3.5]nonan-2-yl)-5,6-dihydro-4H-benzo[f]imidazo[1,2-a]azepin-4-yl)-5-benzyl-1H-1,2,4-triazole-3-carboxamide] | 7.92 | 5.46 | 7.17 | –
13 | CC(C)(O)CCc1ccc2c(c1)-n1ccnc1C(NC(=O)c1n[nH]c(Cc3ccccc3)n1)CC2 (racemic) [Compound I-68, (±)-5-Benzyl-N-(9-(3-hydroxy-3-methylbutyl)-5,6-dihydro-4H-benzo[f]imidazo[1,2-a]azepin-4-yl)-1H-1,2,4-triazole-3-carboxamide] | 7.60 | 5.06 | 6.93 | –
14 | O=C(N[C@H]1CSc2ccccc2-n2nnnc21)c1ncn(Cc2ccc(F)cc2)n1 [Compound I-22, (R)—N-(4,5-Dihydrobenzo[b]tetrazolo[1,5-d][1,4]thiazepin-4-yl)-1-(4-fluorobenzyl)-1H-1,2,4-triazole-3-carboxamide] | 8.70 | 5.60 | 7.49 | –
15 | CC(C)(O)C#Cc1ccc2c(c1)-n1ccnc1C(NC(=O)n1cc(Cc3ccc(F)cc3)cn1)CC2 (racemic) [Compound I-93, (±)-4-(4-Fluorobenzyl)-N-(9-(3-hydroxy-3-methylbut-1-yn-1-yl)-5,6-dihydro-4H-benzo[f]imidazo[1,2-a]azepin-4-yl)-1H-pyrazole-1-carboxamide] | 7.43 | 5.29 | 7.39 | –
16 | O=C(NC1CSc2cccn2-n2ccnc21)c1ncn(Cc2c(Cl)cccc2Cl)n1 (racemic) [Compound I-29, (±)-1-(2,6-Dichlorobenzyl)-N-(4,5-dihydroimidazo[1,2-d]pyrrolo[2,1-b][1,3,4]thiadiazepin-4-yl)-1H-1,2,4-triazole-3-carboxamide] | 8.96 | 6.71 | – | 8.01
17 | O=C(N[C@H]1COc2ccccc2-n2c1noc2=O)c1cc(Oc2ccccc2)ccn1 [Compound I-53, N-((4R)-1-Oxo-4,5-dihydro-1H-benzo[6][1,2,4]oxadiazolo[4,3-d][1,4]oxazepin-4-yl)-4-phenoxypicolinamide] | 7.34 | 4.51 | 7.69 | –
18 | O=C(N[C@H]1COc2ccccc2-n2c1noc2=O)c1cc(Cc2ccccc2)on1 [Compound I-43, 5-benzyl-N-((4R)-1-oxo-4,5-dihydro-1H-benzo[b][1,2,4]oxadiazolo[4,3-d][1,4]oxazepin-4-yl)isoxazole-3-carboxamide] | 6.69 | 2.00 | 6.96 | –
19 | O=C(N[C@H]1COc2ccc(C#Cc3ccccn3)cc2-n2ccnc21)c1n[nH]c(Cc2ccccc2)n1 [Compound I-89, (R)-5-Benzyl-N-(9-(pyridin-2-ylethynyl)-4,5-dihydrobenzo[b]imidazo[1,2-d][1,4]oxazepin-4-yl)-1H-1,2,4-triazole-3-carboxamide] | 7.45 | 5.10 | 6.97 | –
20 | O=C(N[C@H]1COc2ccccc2-n2c1noc2=O)c1cc(O)n(Cc2ccccc2)n1 [Compound I-75, 1-Benzyl-5-hydroxy-N-((4R)-1-oxo-4,5-dihydro-1H-benzo[b][1,2,4]oxadiazolo[4,3-d][1,4]oxazepin-4-yl)-1H-pyrazole-3-carboxamide] | 2.00 | 2.00 | 4.98 | –
21 | O=C(NC1CSc2cccn2-n2ccnc21)c1n[nH]c(Cc2ccccc2)n1 (racemic) [Compound I-45, (±)-5-Benzyl-N-(4,5-dihydroimidazo[1,2-d]pyrrolo[2,1-b][1,3,4]thiadiazepin-4-yl)-1H-1,2,4-triazole-3-carboxamide] | 7.44 | 4.98 | 7.51 | –
22 | O=C(N[C@H]1COc2ccccc2-n2c1noc2=O)c1n[nH]c(Cc2ccc(F)cc2F)n1 [Compound I-49, 5-(2,4-Difluorobenzyl)-N-((4R)-1-oxo-4,5-dihydro-1H-benzo[b][1,2,4]oxadiazolo[4,3-d][1,4]oxazepin-4-yl)-1H-1,2,4-triazole-3-carboxamide] | 6.14 | 2.00 | 6.46 | –
23 | O=C(NC1CCc2ccccc2-n2c(Cl)cnc21)c1n[nH]c(Cc2ccccc2)n1 (racemic) [Compound I-81, (±)-5-Benzyl-N-(1-chloro-5,6-dihydro-4H-benzo[f]imidazo[1,2-a]azepin-4-yl)-1H-1,2,4-triazole-3-carboxamide] | 5.37 | 2.00 | 6.29 | –
24 | O=C(NC1CCc2ccccc2-n2c(Cl)cnc21)c1cc(Cc2ccccc2)on1 (racemic) [Compound I-71, (±)-5-Benzyl-N-(1-chloro-5,6-dihydro-4H-benzo[f]imidazo[1,2-a]azepin-4-yl)isoxazole-3-carboxamide] | 5.46 | 2.00 | 6.24 | –
25 | CC(C)(O)C#Cc1ccc2c(c1)-n1cnnc1C(NC(=O)c1n[nH]c(Cc3ccccc3)n1)CC2 (racemic) [Compound I-72, (±)-5-Benzyl-N-(9-(3-hydroxy-3-methylbut-1-yn-1-yl)-5,6-dihydro-4H-benzo[f][1,2,4]triazolo[4,3-a]azepin-4-yl)-1H-1,2,4-triazole-3-carboxamide] | 6.15 | 2.00 | 6.66 | –
